Results published in PubChem BioAssay AID1963422 (Molecular Pharmacology Branch, DTP, NCI, 2024).
pIC50: −log10 of the molar value.

Tested on: 463943-066-T-J2-PDC complex spheroid growth
Test: Anticancer human tumor 463943-066-T-J2-PDC patient-derived colon adenocarcinoma cell line growth inhibition [Asc]
Conditions: for pIC50: curve of first compound; for viability, T/C: stronger effect = lower value; active = viability on the fitted dose curve at most 10% of control; inactive = the rest
In short: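 Stromal components (HUVEC and hMSC) are co-assembled with the cancer cells into multicellular spheroids. Drugs are then added singly or paired, at concentrations falling by half-log increments from a clinically achievable maximum, capped at 10 microM without known Cmax.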
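Also: compound exposure lasted 7 days.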
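For viability, T/C in this document: 100% = DMSO vehicle control wells.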

C=CC(=O)N1CCN(c2nc(=O)n(-c3c(C)ccnc3C(C)C)c3nc(-c4c(O)cccc4F)c(F)cc23)C(C)C1 (configuration not stated) + CCN1C(C(=O)NC23CCC(C(=O)O)(CC2)CC3)C(c2cccc(Cl)c2F)C2(C(=O)Nc3cc(Cl)ccc32)C12CCCCC2
< 5.00: pIC50 (second compound 0.00949 µM) | pIC50 (second compound 0.03 µM) | pIC50 (second compound 0.0949 µM) | pIC50 (second compound 0.3 µM) | pIC50 (second compound 0.949 µM) | pIC50 (second compound 3 µM)
inactive: viability, T/C (second compound 0.00949 µM, first compound 0.0316 µM) 94.4% | viability, T/C (second compound 0.00949 µM, first compound 0.1 µM) 96.5% | viability, T/C (second compound 0.00949 µM, first compound 0.316 µM) 93% | viability, T/C (second compound 0.00949 µM, first compound 1 µM) 107% | viability, T/C (second compound 0.00949 µM, first compound 3.16 µM) 104% | viability, T/C (second compound 0.00949 µM, first compound 10 µM) 98% | viability, T/C (second compound 0.03 µM, first compound 0.0316 µM) 108% | viability, T/C (second compound 0.03 µM, first compound 0.1 µM) 96.8% | viability, T/C (second compound 0.03 µM, first compound 0.316 µM) 99.9% | viability, T/C (second compound 0.03 µM, first compound 1 µM) 103% | viability, T/C (second compound 0.03 µM, first compound 3.16 µM) 104% | viability, T/C (second compound 0.03 µM, first compound 10 µM) 88.4% | viability, T/C (second compound 0.0949 µM, first compound 0.0316 µM) 92.4% | viability, T/C (second compound 0.0949 µM, first compound 0.1 µM) 88.6% | viability, T/C (second compound 0.0949 µM, first compound 0.316 µM) 91% | viability, T/C (second compound 0.0949 µM, first compound 1 µM) 93.2% | viability, T/C (second compound 0.0949 µM, first compound 3.16 µM) 97.3% | viability, T/C (second compound 0.0949 µM, first compound 10 µM) 86.3% | viability, T/C (second compound 0.3 µM, first compound 0.0316 µM) 84.4% | viability, T/C (second compound 0.3 µM, first compound 0.1 µM) 84.8% | viability, T/C (second compound 0.3 µM, first compound 0.316 µM) 86.2% | viability, T/C (second compound 0.3 µM, first compound 1 µM) 85.5% | viability, T/C (second compound 0.3 µM, first compound 3.16 µM) 86.7% | viability, T/C (second compound 0.3 µM, first compound 10 µM) 80.3% | viability, T/C (second compound 0.949 µM, first compound 0.0316 µM) 76.5% | viability, T/C (second compound 0.949 µM, first compound 0.1 µM) 77% | viability, T/C (second compound 0.949 µM, first compound 0.316 µM) 74% | viability, T/C (second compound 0.949 µM, first compound 1 µM) 77% | viability, T/C (second compound 0.949 µM, first compound 3.16 µM) 78.2% | viability, T/C (second compound 0.949 µM, first compound 10 µM) 77% | viability, T/C (second compound 3 µM, first compound 0.0316 µM) 71.7% | viability, T/C (second compound 3 µM, first compound 0.1 µM) 73.3% | viability, T/C (second compound 3 µM, first compound 0.316 µM) 75.9% | viability, T/C (second compound 3 µM, first compound 1 µM) 77.6% | viability, T/C (second compound 3 µM, first compound 3.16 µM) 72.5% | viability, T/C (second compound 3 µM, first compound 10 µM) 72.5%
